Reference: paper PMC3433414, “Oral Administration of the Pimelic Diphenylamide HDAC Inhibitor HDACi 4b Is Unsuitable for Chronic Inhibition of HDAC Activity in the CNS In Vivo” (PLoS ONE, 2012)

Assay: Permeability and efflux in Caco2 monolayers
Format: in vitro ADME
Conditions: human
Method: Caco-2 cells (obtained from ECACC) were used after a 21-day cell culture period in 24-well Transwell plates (seeding density of 2×10^5 cells/well). Test compounds (10 µM) were dissolved in Hanks’ Balanced Salt Solution (HBSS) containing 25 mM HEPES (pH 7.4) and added to either the apical or basolateral chambers of a Transwell plate assembly. Duplicate wells were prepared per assay condition. Lucifer Yellow was added to the apical buffer in all wells to assess integrity of the cell layers by monitoring Lucifer Yellow permeation. As Lucifer Yellow (LY) cannot freely permeate lipophilic barriers, a high degree of LY transport indicates poor integrity of the cell layer.
After 1 hr incubation at 37°C, aliquots were taken from the acceptor chamber of each Transwell and added to acetonitrile containing analytical internal standard (carbamazepine) in a 96 well plate. Concentrations of test compound in the samples were measured by high performance liquid-chromatography/mass spectroscopy (LC-MS/MS).
Apparent permeability (Papp) values were calculated from the relationship: [drawing 4] […]
Acceptor = Chamber of Transwell in to which permeation of compound is measured: basal for A>B experiments and apical for B>A experiments.
The Efflux ratios, as an indication of active efflux from the apical cell surface, were calculated using the ratio of Papp B>A/Papp A>B.

Nc1ccccc1NC(=O)CCCCCC(=O)Nc1ccccc1 [Compound 4b]
Papp A→B at 1 h, 10 µM (Caco-2, pH 7.4): 15.6 ×10⁻⁶ cm/s | efflux ratio at 1 h, 10 µM (Caco-2, pH 7.4, read-out: effective efflux ratio): 3.5
